Experimental data taken from patent US20240253033A1, “MICROFLUIDIC DETECTION SYSTEM WITH ADJUSTABLE FLOW CONTROL” (priority 2022, published 2024).
One block for each molecule: values may come before it.

Tests used:
[1] = system: A. baumannii; assay: QolorAST minimum inhibitory concentration (MIC) test; format: cell-based, Acinetobacter baumannii
Method: (§1) Acinetobacter baumannii, Enterococcus faecalis, Enterococcus faecium, Streptococcus agalactiae, Enterobacter cloacae, Klebsiella pneumoniae, Streptococcus pneumoniae, E coli MG1655, and E coli Trimethoprim resistant were streaked on LB miller agar overnight at 37° C. and resuspended in water aliquot. Next, the bacterial concentration was determined using optical density technique. Subsequently, aliquots of different concentrations were prepared for the antibiotic susceptibility testing experiments in CamHB growth media.
(§2) 5×10^5 CFU ml^−1 Oxacillin-resistant S. aureus aliquots were prepared using resazurin/oxacillin solution using different concentrations of oxacillin antibiotic (16 μg/mL, 32 μg/mL, and 64 μg/mL). 5×10^5 CFU ml^−1 Cipro.
(§3) A minimum inhibitory concentration (MIC) was performed to study the QolorAST broad applicability in detecting bacterial resistance profiles and ensuring timely and efficient antimicrobial theraby. […] The antibiotics cover major bacterial inhibition mechanisms as inhibition of protein synthesis, cell wall synthesis, and/or DNA synthesis.
(§4) QolorAST exploited two methodologies: Manual MIC (MA-MIC) and support vector machine MIC (SVM-MIC). […] The SVM-MIC was carried out with a rbf kernel that was optimized and trained to predict the color change of the preclinical images using our library of bacteria images collected under different conditions including images where color is changed, color transitioning, and no color change. The SVM successfully classified the condition's bacteria-antibiotic in the concentration range studied.

[2] = system: E. cloacae; assay: as above; format: cell-based, Enterobacter cloacae
Method: as §1, §2, §3, §4

[3] = system: S. pneumonia; assay: as above; format: cell-based, Streptococcus pneumoniae
Method: as §1, §2, §3, §4

[4] = system: K. pneumonia; assay: as above; format: cell-based, Klebsiella pneumoniae
Method: as §1, §2, §3, §4

[5] = system: S. agalactiae; assay: as above; format: cell-based, Streptococcus agalactiae
Method: as §1, §2, §3, §4

[6] = system: A. baumannii; assay: Conventional broth microdilution (BMD) MIC; format: cell-based, Acinetobacter baumannii
Method: (§5) For clinical MIC, bacteria were streaked on LB agar overnight and resuspended in a water aliquot. The aliquot was measured, and the bacteria concentration was adjusted to of 10^6 CFU ml^−1 in LB media. A 96 well plate with an antibiotic gradient from 128 μg/ml to 0.125 μg/ml in a 2-fold concentration dilution step was prepared with a positive control with no antibiotics. Next, the bacteria were introduced to each well of the 96 well plate for a final bacteria concentration of 5×10^5 CFU ml^−1. The well plates were cultured overnight the minimum inhibitory concentration was determined as the antibiotic concentration that didn't show any signs of bacterial growth.

[7] = system: E. cloacae; assay: Conventional broth microdilution (BMD) MIC; format: cell-based, Enterobacter cloacae
Method: as §5

[8] = system: S. pneumonia; assay: Conventional broth microdilution (BMD) MIC; format: cell-based, Streptococcus pneumoniae
Method: as §5

[9] = system: K. pneumonia; assay: Conventional broth microdilution (BMD) MIC; format: cell-based, Klebsiella pneumoniae
Method: as §5

[10] = system: S. agalactiae; assay: Conventional broth microdilution (BMD) MIC; format: cell-based, Streptococcus agalactiae
Method: as §5

[11] = system: E coli MG1655; conditions: E coli MG1655 spiked in urine
Method: To obtain spiked human samples, first human urine was centrifuged at 5000 rcf for 5 minutes to remove large particles. It was subsequently spiked with 5×10^5 CFU ml^−1 and mixed with a solution of Resazurin to a final concentration of 0.02%. No antibiotics were added for the control aliquots, 32 μg/mL Ampicillin was added for resistant aliquots and 16 μg/mL Kanamycin was added for susceptible aliquots. The aliquots were incubated at 37° C. different periods starting from 0 minutes incubation till 60 minutes with a time step of 5 minutes.
According to the Infectious Diseases Society of America (IDSA), 105 CFU ml^−1 and 102 CFU ml^−1 were spiked in-vivo in urine, serum, and nasal swab of donors to simulate urinary tract infection, wound infection, and pneumonia by MRSA, respectively. Human urine was spiked with different concentrations of E. coli (FIG. 32D). As a control the healthy human biofluids were screened as received.

Molecule: Colistin
MA-MIC/SVM-MIC/MIC Category [1]: R/R/R | QolorAST MIC Manual (MA-MIC) [1]: 8 µg/mL | QolorAST MIC SVM (SVM-MIC) [1]: 8 µg/mL | MIC ([1]; both manually and through SVM): 8 µg/mL | MA-MIC/SVM-MIC/MIC Category [2]: R/R/R | QolorAST MIC Manual (MA-MIC) [2]: 4 µg/mL | QolorAST MIC SVM (SVM-MIC) [2]: 4 µg/mL | MA-MIC/SVM-MIC/MIC Category [3]: R/R/R* | QolorAST MIC Manual (MA-MIC) [3]: > 128 µg/mL | QolorAST MIC SVM (SVM-MIC) [3]: > 128 µg/mL | MA-MIC/SVM-MIC/MIC Category [4]: R/R/R | QolorAST MIC Manual (MA-MIC) [4]: 8 µg/mL | QolorAST MIC SVM (SVM-MIC) [4]: 8 µg/mL | MA-MIC/SVM-MIC/MIC Category [5]: R/R/R* | QolorAST MIC Manual (MA-MIC) [5]: 128 µg/mL | QolorAST MIC SVM (SVM-MIC) [5]: > 128 µg/mL | resistance or susceptibility [5]: resistant | Broth Microdilution MIC (MIC) [6]: 8 | Broth Microdilution MIC (MIC) [7]: 4 | Broth Microdilution MIC (MIC) [8]: >128 | Broth Microdilution MIC (MIC) [9]: 8 | Broth Microdilution MIC (MIC) [10]: 128

MIC [11]: 0.312 mL⁻¹ | resistance profile based on the CLSI MIC cut off values [11]: susceptible
Molecule: COc1cc(Cc2cnc(N)nc2N)cc(OC)c1OC [Trimethoprim]
